Test results published in article PMC10537604, “Development and Assessment of 1,5–Diarylpyrazole/Oxime Hybrids Targeting EGFR and JNK–2 as Antiproliferative Agents: A Comprehensive Study through Synthesis, Molecular Docking, and Evaluation” (Molecules, 2023).
pIC50: −log10 of the molar value.

How the values were obtained:
[1] = tested on: human hepatocellular carcinoma cell line HepG2; assay: WST-8 antiproliferative assay, HepG2; format: cell-based; settings: WST-8 assay, six concentrations 1-100 µM
JNK-2 = target: T1, JNK-2 (Homo sapiens, UniProt P45984); assay: JNK-2 inhibitory assay (SimpleStep ELISA, pT183/Y185); format: biochemical; settings: read-out: IC50 (µM) against JNK-2
T1 construct: HEK293 only for the control lysate
T1 sequence (P45984 whole entry): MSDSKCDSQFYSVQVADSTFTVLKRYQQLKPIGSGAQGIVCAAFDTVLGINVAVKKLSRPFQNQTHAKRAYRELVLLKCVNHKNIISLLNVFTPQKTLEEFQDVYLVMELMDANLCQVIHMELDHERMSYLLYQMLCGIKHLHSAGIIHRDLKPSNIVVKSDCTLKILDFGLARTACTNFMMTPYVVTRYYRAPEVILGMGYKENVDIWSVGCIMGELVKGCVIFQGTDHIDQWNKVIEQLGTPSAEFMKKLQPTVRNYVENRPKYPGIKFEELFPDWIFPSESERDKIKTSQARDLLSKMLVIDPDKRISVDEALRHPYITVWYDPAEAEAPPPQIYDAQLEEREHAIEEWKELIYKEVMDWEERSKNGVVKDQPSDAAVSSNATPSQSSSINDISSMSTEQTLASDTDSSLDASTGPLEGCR
Method: The SimpleStep ELISA employs an affinity tag-labelled capture antibody and a reporter attached detector antibody to immunocapture the sample analyte in solution. This complete complex (capture antibody/analyte/detector antibody) is then immobilized via immunoaffinity of an anti-tag antibody coating the well. To perform the assay, samples or controls are added to the wells, followed by the antibody cocktail. After incubation, the wells are washed to remove unbound material. TMB substrate is added and during incubation is catalyzed by HRP, generating blue coloration. This reaction is then stopped by the addition of stop solution, completing any color change from blue to yellow. The signal is generated proportionally to the amount of bound analyte and the intensity is measured at 450 nm. Optionally, instead of the endpoint reading, the development of TMB can be recorded kinetically at 600 nm. An antibody cocktail can be prepared by combining an appropriate volume of the capture and detector antibodies immediately prior to assay. To make 3 mL of the antibody cocktail, combine 1.5 mL of capture antibody with 1.5 mL of detector antibody. Mix thoroughly and gently. Control lysate can be prepared from HEK293 cells, cultured in 10% FBS containing medium, then treated with 1 μg/mL anisomycin. After preparing all the reagents, samples, and control as instructed and following the previously published procedures [74, 75], add 50 µL of sample or control to the well, add 50 µL of the antibody cocktail, then incubate at room temperature for 1 h on a plate shaker set to 400 rpm, aspirate and wash each well three times with 350 μL with wash buffer, add 100 μL TMB substrate to each well and incubate for 15 min, then add 100 μL stop solution and measure the absorbance at 450 nm.

[2] = tested on: human colorectal adenocarcinoma cell line DLD-1; assay: WST-8 antiproliferative assay, DLD-1; format: cell-based; settings: WST-8 assay, six concentrations 1-100 µM
Hela cell line = assay: Cell cycle analysis, PI staining, flow cytometry; format: cell-based, human; settings: for cell cycle arrest phase: Hela, PI staining
Method: This analysis was applied to investigate the effects of tested compounds on cell cycle distribution and on cell-death associated DNA fragmentation. The Hela cell line was analyzed flow cytometrically after propidium iodide (PI) staining, following the treatment of compounds 8g and 8i.
The supernatant was transferred to falcon tube for each plate and each well was washed twice with 3 mL PBS, Trypsin 1 mL was added, and plates were incubated for 3 to 5 min at 37 degrees, then 3 mL of the medium was added to separate cells, cells were centrifuged for 5 min, and supernatant was decanted. Then, it was washed again with 3 mL PBS, and 10 mL of medium was added. Cells were immediately fixed in ice cold 70% ethanol overnight at −20 °C. On the day of the analysis, cells were washed ×3 with PBS and re-suspended in propidium iodide (PI) for 15 min at room temperature, protected from light. Cell-cycle analysis was performed using flowcytometric analysis (BD FACS melody) and data obtained from cell cycle distribution was analyzed using FSC-W (Watson model) to estimate the percentage of cells in G1, S, and G2.

Hela cells = assay: Apoptosis assay, annexin V/PI flow cytometry; format: cell-based, human; settings: concentration double the IC50, 24 h
Text: For further investigation of the anticancer activity of compounds 8g and 8i, studies of apoptotic changes after treatment of Hela cells with these inhibitors were examined using fluorescent microscope and flowcytometry. Moreover, to discriminate between apoptosis and necrosis after the treatment of Hela cell with two inhibitors 8g and 8i at different concentrations, a fluorescent microscope was used to distinguish between apoptosis and necrosis based on their characteristic difference in morphology using annexin V and PI [52]. […] This was exposed in the cell membrane of the Hela cells after treatment with two inhibitors due to plasma membrane sprouting and chromatin concentration. The prolonged incubation of Hela cells with two inhibitors directed cells to necrosis, which was marked in red because of the PI staining of necrotic cells as a result of losing their dye-excluding ability owing to a loss of plasma membrane integrity and the dissolution of nuclear chromatin [53] (Figure S1).
Then, 200 µL of medium was added to separate cells, cells were centrifuged for 5 min, and supernatant was decanted. Then, it was washed twice with 100 µL PBS and 200 µL of buffer, 5 µL of PI& Annexin, and 200 µL of PBS was added for the test compounds. For control, 400 µL of PBS was added. […]

[3] = WST-8 cytotoxicity towards normal cell line PC12; format: cell-based, rat; settings: rat, PC12 cells; WST-8 assay, six concentrations 1-100 μM; read-out: CC50 against PC12 cell line
Method: The evaluation of normal cell viability is fundamental in analyzing the efficacy of target compounds and is often used in conjunction with cytotoxicity tests to help understand how target compound toxicity affects normal cell health. […] A 100 μL aliquot of cells (10,000 cells/mL) was added to a 96 well plate and incubated for 24 h at 37 °C in a humidified incubator containing 5% CO2 in the air. […] Then, a 10 μL WST-8 solution (mixture of WST-8 and 1-methoxy PMS) was added to each well and the incubation continued for 3 h. The visible absorbance at 450 nm and 630 nm as the reference wavelength of each well was quantified using an MTP-310 absorbance microplate reader. Daunorubicin was used as a positive control. The results of cytotoxicity were recorded as growth inhibition percentages and as IC50 values.

[4] = tested on: human pancreatic cancer cell line SUIT-2; assay: WST-8 antiproliferative assay, SUIT-2; format: cell-based; settings: WST-8 assay, six concentrations 1-100 µM

Row | Structure (SMILES) | pIC50 [1] | IC50 (JNK-2) | pIC50 [2] | pIC50 [4] | also measured
1 | COc1cc(/C(C)=N/O)ccc1OC(=O)c1cc(-c2ccccc2)n(-c2ccc(S(N)(=O)=O)cc2)n1 [Compound 8f, (E)–4–(1–(Hydroxyimino)ethyl)–2–methoxyphenyl 5–phenyl–1–(4–sulfamoyl phenyl)–1H–pyrazole–3–carboxylate] | 4.65 |  |  |  | 
2 | COc1cc(/C(C)=N/O)ccc1OC(=O)c1cc(-c2ccc(Cl)cc2)n(-c2ccccc2)n1 [Compound 8d, (E)–4–(1–(Hydroxyimino)ethyl)–2–methoxyphenyl 5–(4–chlorophenyl)–1–phenyl–1H–pyrazole–3–carboxylate] |  | 49 µM |  |  | 
3 | COc1cc(/C(C)=N/O)ccc1OC(=O)c1cc(-c2ccc(C)cc2)n(-c2ccc(S(N)(=O)=O)cc2)n1 [Compound 8g, (E)–4–(1–(Hydroxyimino)ethyl)–2–methoxyphenyl 1–(4–sulfamoylphenyl)–5–p–tolyl–1H–pyrazole–3–carboxylate] | 4.91 | > 200 µM | 4.49 | 4.72 | percentage of Hela cells at G2 phase (Hela cell line; 48 h): 20.5%; cell cycle arrest phase (Hela cell line): G2/M arrest; percentage of apoptotic Hela cells (Hela cells): 34.7%; CC50 at 24 h [3]: 16.1 µM
4 | COc1ccc(-c2cc(C(=O)Oc3ccc(/C(C)=N/O)cc3OC)nn2-c2ccccc2)cc1OC [Compound 8e, (E)–4–(1–(Hydroxyimino)ethyl)–2–methoxyphenyl 5–(3,4–dimethoxy phenyl)–1–phenyl–1H–pyrazole–3–carboxylate] | 5.33 |  |  |  | 
5 | COc1cc(/C(C)=N/O)ccc1OC(=O)c1cc(-c2ccc(C)cc2)n(-c2ccccc2)n1 [Compound 8b, (E)–4–(1–(Hydroxyimino)ethyl)–2–methoxyphenyl 1–phenyl–5–p–tolyl–1H–pyrazole–3–carboxylate] | 4.45 |  | 5.00 | 4.57 | 
6 | COc1cc(/C(C)=N/O)ccc1OC(=O)c1cc(-c2ccc(Cl)cc2)n(-c2ccc(S(N)(=O)=O)cc2)n1 [Compound 8i, (E)–4–(1–(Hydroxyimino)ethyl)–2–methoxyphenyl 5–(4–chlorophenyl)–1–(4–sulfamoyl phenyl)–1H–pyrazole–3–carboxylate] |  | 1 µM |  | 4.21 | cell cycle arrest phase (Hela cell line): combined S phase and G2 phase arrest; percentage of Hela cells at G2 phase (Hela cell line; IC50 concentration, 24 h): 18.2%; percentage of Hela cells at S phase (Hela cell line; IC50 concentration, 24 h): 59.4%; percentage of apoptotic Hela cells (Hela cells): 17.3%; CC50 at 24 h [3]: > 100 µM
7 | COc1ccc(-c2cc(C(=O)Oc3ccc(/C(C)=N/O)cc3OC)nn2-c2ccc(S(N)(=O)=O)cc2)cc1 [Compound 8h, (E)–4–(1–(Hydroxyimino)ethyl)–2–methoxyphenyl 5–(4–methoxyphenyl)–1–(4–sulfamoyl phenyl)–1H–pyrazole–3–carboxylate] |  |  |  | 4.59 | 

Now from value to compound, other results behind:

Row | pIC50 [1] | IC50 (JNK-2) | pIC50 [2] | pIC50 [4] | Structure (SMILES) | also measured
8 |  |  | 4.59 |  | C/C(=N\O)c1ccc(NC(=O)c2cc(-c3ccccc3)n(-c3ccc(S(N)(=O)=O)cc3)n2)cc1 [Compound 10a, (E)–N–(4–(1–(Hydroxyimino)ethyl)phenyl)–5–phenyl–1–(4–sulfamoylphenyl)–1H–pyrazole–3–carboxamide] | 
9 |  |  | 4.44 |  | COc1ccc(-c2cc(C(=O)Nc3ccc(/C(C)=N/O)cc3)nn2-c2ccc(S(N)(=O)=O)cc2)cc1 [Compound 10b, (E)–N–(4–(1–(Hydroxyimino)ethyl)phenyl)–5–(4–methoxyphenyl)–1–(4–sulfamoylphenyl)–1H–pyrazole–3–carboxamide] | 
10 |  |  |  | 4.89 | COc1ccc(-c2cc(C(=O)Nc3ccc(/C(C)=N/O)cc3)nn2-c2ccc(S(N)(=O)=O)cc2)cc1OC [Compound 10c, (E)–5–(3,4–Dimethoxyphenyl)–N–(4–(1–(hydroxyimino)ethyl)phenyl)–1–(4–sulfamoyl phenyl)–1H–pyrazole–3–carboxamide] | 
